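Protocol summary: plate cells (96-well), add compound at 5 concentrations, incubate 48 h, interpolate endpoints linearly. Here, GI50 denotes the concentration required for 50% inhibition of growth.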 Activity calls are given as the source filed them. No stated cut-off is given here; in the data, active = GI50 up to about 1.1 µM and inactive = higher. *1 amine or outer side, *2 acyl side, *3 side chain or, on linkers, in order; H or OH if unused. Where a SMILES comes first, the peptide text is derived from it. Bridges are numbered along the chain shown (N, C = ends). Roman numbers before positions name the chains, in order. [ ]: non-standard residue; d: D form. Actinocin(9to1) = Cc1c2oc3c(C)ccc(C(=O)[*:1])c3nc-2c(C(=O)[*:2])c(N)c1=O; Hyp = O=C(O)[CH]1C[CH](O)CN1; NMeV = CN[CH](C(=O)O)C(C)C; Sar = CNCC(=O)O
Tests used:
Assay in all cases: NCI tumour cell line growth inhibition, 48 h
MOLT-4 = test system: MOLT-4
SK-MEL-28 = test system: SK-MEL-28
CCRF-CEM = test system: CCRF-CEM
SN12C = test system: SN12C
786-0 = test system: 786-0
HCT-116 = test system: HCT-116
OVCAR-8 = test system: OVCAR-8
OVCAR-3 = test system: OVCAR-3
SF-295 = test system: SF-295
U-251 = test system: U-251
A498 = test system: A498
HL-60 = test system: HL-60
ACHN = test system: ACHN
HCT-15 = test system: HCT-15
UACC-62 = test system: UACC-62
NCI-H226 = test system: NCI-H226
HOP-62 = test system: HOP-62
RXF 393 = test system: RXF 393
SF-268 = test system: SF-268

SMILES | GI50 (MOLT-4) | GI50 (SK-MEL-28) | GI50 (CCRF-CEM) | GI50 (SN12C) | GI50 (786-0) | GI50 (HCT-116) | GI50 (OVCAR-8) | GI50 (OVCAR-3) | GI50 (SF-295) | GI50 (U-251) | GI50 (A498) | GI50 (HL-60) | GI50 (ACHN) | GI50 (HCT-15) [µM] | GI50 (UACC-62) | GI50 (NCI-H226) | GI50 (HOP-62) | GI50 (RXF 393) | GI50 (SF-268)
Fc1cccc(Cl)c1/C=N\N=C1c2ccccc2-c2ccccc21 | 66.4 µM (inactive) | 76 µM (inactive) | > 100 µM (inactive) | > 100 µM (inactive) | > 100 µM (inactive) | > 100 µM (inactive) | 79.8 µM (inactive) | 69.2 µM (inactive) | 61.7 µM (inactive) | 78.9 µM (inactive) | > 100 µM (inactive) | > 100 µM (inactive) | 95.3 µM (inactive) | 75.2 | > 100 µM (inactive) | > 100 µM (inactive) | 65.6 µM (inactive) | > 100 µM (inactive) | > 100 µM (inactive)
CC(=O)c1cn(-c2ccc(Cl)cc2)c(=O)c2c(N)n[nH]c12 | > 100 µM (inactive) | > 100 µM (inactive) | > 100 µM (inactive) | – | > 100 µM (inactive) | > 100 µM (inactive) | > 100 µM (inactive) | – | > 100 µM (inactive) | > 100 µM (inactive) | > 100 µM (inactive) | > 100 µM (inactive) | 25.6 µM (inactive) | > 100 | 41.7 µM (inactive) | > 100 µM (inactive) | > 100 µM (inactive) | > 100 µM (inactive) | > 100 µM (inactive)
CCCC(=O)N[C@H]1C2C3CC4C5CC(C42)C1(C)C53 (stereo not given in full) | > 100 µM (inactive) | > 100 µM (inactive) | > 100 µM (inactive) | > 100 µM (inactive) | > 100 µM (inactive) | > 100 µM (inactive) | – | > 100 µM (inactive) | > 100 µM (inactive) | > 100 µM (inactive) | > 100 µM (inactive) | > 100 µM (inactive) | > 100 µM (inactive) | > 100 | > 100 µM (inactive) | > 100 µM (inactive) | > 100 µM (inactive) | > 100 µM (inactive) | > 100 µM (inactive)
Cc1nc2ccccc2c(=O)n1NC(=O)c1ccccc1O | > 100 µM (inactive) | > 100 µM (inactive) | > 100 µM (inactive) | > 100 µM (inactive) | > 100 µM (inactive) | > 100 µM (inactive) | > 100 µM (inactive) | > 100 µM (inactive) | > 100 µM (inactive) | > 100 µM (inactive) | > 100 µM (inactive) | > 100 µM (inactive) | > 100 µM (inactive) | > 100 | > 100 µM (inactive) | > 100 µM (inactive) | > 100 µM (inactive) | > 100 µM (inactive) | > 100 µM (inactive)
S=C(/N=C1/NCC(CN2CCN(c3ccccc3)CC2)O1)Nc1ccccc1 (stereo not given) | 27.5 µM (inactive) | > 100 µM (inactive) | 30.5 µM (inactive) | > 100 µM (inactive) | 76.7 µM (inactive) | 48.3 µM (inactive) | > 100 µM (inactive) | 52.2 µM (inactive) | 49 µM (inactive) | 55.3 µM (inactive) | > 100 µM (inactive) | 29 µM (inactive) | > 100 µM (inactive) | 32.4 | 39.7 µM (inactive) | > 100 µM (inactive) | 77.3 µM (inactive) | 39.8 µM (inactive) | > 100 µM (inactive)
COC(=O)/C=C(/C(=O)OC)c1c(C)c(C)c2c(C)cc(C)cc(C)c1-2 | > 100 µM (inactive) | 33.1 µM (inactive) | > 100 µM (inactive) | 38.8 µM (inactive) | > 100 µM (inactive) | 17.4 µM (inactive) | 46.3 µM (inactive) | 22.1 µM (inactive) | 20.9 µM (inactive) | 26.9 µM (inactive) | 97.9 µM (inactive) | > 100 µM (inactive) | 20 µM (inactive) | 8.85 | 8.39 µM (inactive) | 13.3 µM (inactive) | 23 µM (inactive) | 26.9 µM (inactive) | > 100 µM (inactive)
COC(=O)C(CCC1C=CN(S(=O)(=O)c2ccc(C)cc2)C1)/N=C/c1ccccc1 (stereo not given) | 32.8 µM (inactive) | 69.5 µM (inactive) | 1.99 µM (inactive) | 35.5 µM (inactive) | 43.8 µM (inactive) | 33.4 µM (inactive) | 39.5 µM (inactive) | 35.9 µM (inactive) | 41.1 µM (inactive) | 43.5 µM (inactive) | 99.3 µM (inactive) | 1.29 µM (inactive) | > 100 µM (inactive) | 88.5 | 32.8 µM (inactive) | 32.3 µM (inactive) | 59.2 µM (inactive) | 75.5 µM (inactive) | 69.8 µM (inactive)
COc1ccc(OC)c(/C=N/N=C2\C(=O)Nc3c(Cl)cc(Cl)cc32)c1 | 23.8 µM (inactive) | > 100 µM (inactive) | 59.7 µM (inactive) | > 100 µM (inactive) | 33.3 µM (inactive) | 52.4 µM (inactive) | 61 µM (inactive) | 70.3 µM (inactive) | 32.1 µM (inactive) | 38.7 µM (inactive) | 71.6 µM (inactive) | 43.8 µM (inactive) | 52.4 µM (inactive) | 36.6 | 55.6 µM (inactive) | 82.6 µM (inactive) | 19 µM (inactive) | 66.2 µM (inactive) | –
O=C(C1OC1c1ccc(F)cc1)C12CC3CC(CC(C3)C1)C2 (stereo not given) | 15.8 µM (inactive) | 24.4 µM (inactive) | 6.95 µM (inactive) | 16.4 µM (inactive) | 15.2 µM (inactive) | 5.98 µM (inactive) | 14.4 µM (inactive) | 14.9 µM (inactive) | 22.6 µM (inactive) | 11.4 µM (inactive) | 28.2 µM (inactive) | 4.04 µM (inactive) | 30 µM (inactive) | 15.5 | 15.2 µM (inactive) | 20.2 µM (inactive) | 27 µM (inactive) | 17.7 µM (inactive) | 22.4 µM (inactive)
CN1CN(c2ccccc2)C2(CCN(CCCN(C)c3ccc(F)cc3)CC2)C1=O | 5.02 µM (inactive) | 20.9 µM (inactive) | 11.2 µM (inactive) | 34.5 µM (inactive) | 18.6 µM (inactive) | 12.8 µM (inactive) | 18.9 µM (inactive) | 16 µM (inactive) | 14.9 µM (inactive) | 18.6 µM (inactive) | 29.4 µM (inactive) | 3.21 µM (inactive) | 22.2 µM (inactive) | 22.3 | 18.7 µM (inactive) | 19.1 µM (inactive) | 17.7 µM (inactive) | 16.3 µM (inactive) | 20.3 µM (inactive)
O=CC(O)C(O)C(O)C(O)C(=O)NCCCCCCCCCCCCNC(=O)C(O)C(O)C(O)C(O)C=O (stereo not given) | > 100 µM (inactive) | > 100 µM (inactive) | > 100 µM (inactive) | – | > 100 µM (inactive) | > 100 µM (inactive) | > 100 µM (inactive) | > 100 µM (inactive) | > 100 µM (inactive) | > 100 µM (inactive) | > 100 µM (inactive) | > 100 µM (inactive) | > 100 µM (inactive) | > 100 | > 100 µM (inactive) | > 100 µM (inactive) | > 100 µM (inactive) | > 100 µM (inactive) | > 100 µM (inactive)
CC1(C)C2CCC1(CC(=O)O)C(Cl)C2 (stereo not given) | > 100 µM (inactive) | > 100 µM (inactive) | > 100 µM (inactive) | > 100 µM (inactive) | > 100 µM (inactive) | > 100 µM (inactive) | > 100 µM (inactive) | > 100 µM (inactive) | > 100 µM (inactive) | > 100 µM (inactive) | > 100 µM (inactive) | > 100 µM (inactive) | > 100 µM (inactive) | > 100 | > 100 µM (inactive) | > 100 µM (inactive) | > 100 µM (inactive) | > 100 µM (inactive) | > 100 µM (inactive)
CC[C@H](C)[C@H]1NC(=O)[C@@H](NC(=O)[C@@H](CC(C)C)N(C)C(=O)C2CCCN2C(=O)[C@H](C)O)[C@@H](C)OC(=O)[C@H](Cc2ccc(OC)cc2)N(C)C(=O)[C@@H]2CCCN2C(=O)[C@H](CCCCNC(=O)OCc2ccccc2)NC(=O)[C@H](C)C(=O)[C@H](C(C)C)OC(=O)C[C@@H]1O (stereo not given in full) | 4.79 µM (inactive) | 12.2 µM (inactive) | 6.46 µM (inactive) | 5.64 µM (inactive) | 5.56 µM (inactive) | 3.28 µM (inactive) | 19.7 µM (inactive) | 4.01 µM (inactive) | 8.63 µM (inactive) | 3.55 µM (inactive) | > 25 µM (inactive) | > 25 µM (inactive) | 20.1 µM (inactive) | > 25 | 8.2 µM (inactive) | 12.7 µM (inactive) | 6.65 µM (inactive) | > 25 µM (inactive) | 3.91 µM (inactive)
Cc1c2oc3c(C)ccc(C(=O)NC4C(=O)NC(C(C)C)C(=O)N5CC(O)CC5C(=O)N(C)CC(=O)N(C)C(C(C)C)C(=O)OC4C)c3nc-2c(C(=O)NC2C(=O)NC(C(C)C)C(=O)N3CC(O)CC3C(=O)N(C)CC(=O)N(C)C(C(C)C)C(=O)OC2C)c(N)c1=O (stereo not given) (I: TV[Hyp][Sar][NMeV] / II: TV[Hyp][Sar][NMeV]; ester I:1-I:C, II:1-II:C; linker I:N-II:N via Actinocin(9to1); configuration not given here) | > 1 µM (active) | > 1 µM (active) | > 1 µM (active) | > 1 µM (active) | > 1 µM (active) | > 1 µM (active) | > 1 µM (active) | > 1 µM (active) | > 1 µM (active) | > 1 µM (active) | > 1 µM (active) | > 1 µM (active) | > 1 µM (active) | > 1 | – | > 1 µM (active) | > 1 µM (active) | > 1 µM (active) | > 1 µM (active)

From ChEMBL document CHEMBL1201862, “PubChem BioAssay data set” (2004)
